In patent US6156700A, “3-(1,2-Benzisothiazol- and isoxazol-5-yl)-2,4(1H,3H)-pyrimidinedione or thione and 3-(1,2-benzisothiazol- and isoxazol-5-yl)-4(3H)-pyrimidinone or thione herbicidal agents” (American Cyanmid Company, priority 1998, dated 2000):

Assays:
[1] = test system: Soybean, Williams, Glycine max; assay: Postemergence herbicidal evaluation, GLXMAW; type: in vivo, (L.) Merr. cv Williams; details: 0.0630 kg/ha
Experimental: (§1) In the tests, seedling plants are grown in jiffy flats for about two weeks. The test compounds are dispersed in 50/50 acetone/water mixtures containing 0.5% TWEEN®20, a polyoxyethylene sorbitan monolaurate surfactant of Atlas Chemical Industries, in sufficient quantities to provide the equivalent of about 0.0157 kg to 0.500 kg per hectare of active compound when applied to the plants through a spray nozzle operating at 40 psi for a predetermined time. After spraying, the plants are placed on greenhouse benches and are cared for in accordance with conventional greenhouse procedures. From four to five weeks after treatment, the seedling plants are examined and rated according to the rating system set forth below. Where more than one test is involved for a given compound, the data are averaged.
(§2) Results of herbicide evaluation are expressed on a rating scale (0-9). The scale is based upon a visual observation of plant stand, vigor, malformation, size, chlorosis and overall plant appearance as compared with a control.

[2] = test system: Wheat, Winter, cv Riband, Triticum aestivum; assay: Postemergence herbicidal evaluation, TRZAWR; type: in vivo; details: 0.0630 kg/ha
Experimental: as §1, §2

[3] = test system: Ragweed, Common, Ambrosia artemisifolia; assay: Postemergence herbicidal evaluation, AMBEL; type: in vivo, L.; details: 0.0630 kg/ha
Experimental: as §1, §2

[4] = test system: Velvetleaf, Abutilon theophrasti; assay: Postemergence herbicidal evaluation, ABUTH; type: in vivo, Medic.; details: 0.0630 kg/ha
Experimental: as §1, §2

[5] = test system: Morningglory, Ivyleaf, Ipomoea hederacea; assay: Postemergence herbicidal evaluation, IPOHE; type: in vivo, (L.) Jacq.; details: 0.0630 kg/ha
Experimental: as §1, §2

[6] = test system: Foxtail, Green, Setaria viridis; assay: Postemergence herbicidal evaluation, SETVI; type: in vivo, (L.) Beau; details: 0.0630 kg/ha
Experimental: as §1, §2

Corn, Field, Zea mays = assay: Postemergence herbicidal evaluation, ZEAMX; type: in vivo, L.; details: 0.0630 kg/ha
Experimental: as §1, §2

[7] = test system: Sicklepod, Cassia obtusifolia; assay: Postemergence herbicidal evaluation, CASOB; type: in vivo, L.; details: 0.0630 kg/ha
Experimental: as §1, §2

Galium, Galium aparine = assay: Postemergence herbicidal evaluation, GALAP; type: in vivo; details: 0.0630 kg/ha
Experimental: as §1, §2

[8] = test system: Rice, Tebonnet, Oryza sativa; assay: Postemergence herbicidal evaluation, ORYSAT; type: in vivo, (L.) Tebonnet; details: 0.0630 kg/ha
Experimental: as §1, §2

[9] = test system: Lambsquarters, Common, Chenopodium album; assay: Postemergence herbicidal evaluation, CHEAL; type: in vivo, L.; details: 0.0630 kg/ha
Experimental: as §1, §2

[10] = test system: Barnyardgrass, Echinochloa crus-galli; assay: Postemergence herbicidal evaluation, ECHCG; type: in vivo, (L.) Beau; details: 0.0630 kg/ha
Experimental: as §1, §2

CYPSE Flatsedge = assay: Postemergence weed control, flooded paddy (Table IV); type: in vivo, Cyperus serotinus; design: scale not given here
Text: (§3) Plastic containers containing weeds which are 3 to 5 cm tall and rice seedlings at the 1.5 to 2.5 leaf stage are flooded with water. The water is maintained at 1.5 to 3 cm above the soil surface for the duration of the experiment. Test compounds are applied as aqueous/acetone mixtures 50/50 v/v directly into the flood water to provide the equivalent of about 0.0313 to 0.500 kg/ha of active ingredient. The treated containers are placed on greenhouse benches and cared for in accordance with conventional greenhouse procedures. Three to four weeks after treatment, the test is terminated and each container is examined and herbicidal effect rated according to the rating system provided in Example 185. The compounds evaluated are reported by compound number given in Example 185.

MOOVA Monochoria = assay: as above; type: in vivo, Monochoria vaginalis; design: scale not given here
Text: as §3

CYPIR Rice Flatsedge = assay: as above; type: in vivo, Cyperus iria; design: scale not given here
Text: as §3

[11] = test system: ECHORC Watergrass (Calif.); assay: as above; type: in vivo, Echinochloa oryzoides; design: scale not given here
Text: as §3

ORYSAT Rice, Tebonnet = assay: Rice tolerance, flooded paddy (Table IV); type: in vivo, Oryza sativa; design: scale not given here; details: crop tolerance
Text: as §3

[12] = test system: SAGPY Arrowhead (Pygmaea); assay: Postemergence weed control, flooded paddy (Table IV); type: in vivo, Sagittaria pygmaea; design: scale not given here
Text: as §3

| SMILES | herbicide rating (0-9) [1] | herbicide rating (0-9) [2] | herbicide rating (0-9) [3] | herbicide rating (0-9) [4] | herbicide rating (0-9) [5] | herbicide rating (0-9) [6] | herbicide rating (0-9) (Corn, Field, Zea mays) | herbicide rating (0-9) [7] | herbicide rating (0-9) (Galium, Galium aparine) | herbicide rating (0-9) [8] | herbicide rating (0-9) [9] | herbicide rating (0-9) [10] | herbicidal effect rating (CYPSE Flatsedge; 0.1250 kg/ha) | herbicidal effect rating (CYPSE Flatsedge; 0.2500 kg/ha) | herbicidal effect rating (MOOVA Monochoria; 0.1250 kg/ha) | herbicidal effect rating (MOOVA Monochoria; 0.2500 kg/ha) | herbicidal effect rating (CYPIR Rice Flatsedge; 0.1250 kg/ha) | herbicidal effect rating (CYPIR Rice Flatsedge; 0.2500 kg/ha) | herbicidal effect rating ([11]; 0.1250 kg/ha) | herbicidal effect rating ([11]; 0.2500 kg/ha) | other results |
| --- | --- | --- | --- | --- | --- | --- | --- | --- | --- | --- | --- | --- | --- | --- | --- | --- | --- | --- | --- | --- | --- |
| COCc1nsc2ccc(-n3c(=O)cc(C(F)(F)F)n(C)c3=O)cc12 [Compound 31, 3-[3-(Methoxymethyl)-1,2-benzisothiazol-5-yl]-1-methyl-6-(trifluoromethyl)-2,4 (1H,3H)-pyrimidinedione] | 9.0 | 3.0 | 9.0 | 9.0 | 9.0 | 9.0 | 6.0 | 9.0 | 8.0 | 3.0 | 9.0 | 4.0 |  |  |  |  |  |  |  |  |  |
| CC(=O)OCc1nsc2ccc(-n3c(=O)cc(C(F)(F)F)n(C)c3=O)cc12 [Compound 32, 3-[3-(Hydroxymethyl)-1,2-benzisothiazol-5-yl]-1-methyl-6-(trifluoromethyl)-2,4(1H,3H)-pyrimidinedione,acetate ester] | 5.5 | 2.0 | 9.0 | 9.0 | 9.0 | 5.0 | 5.5 | 4.0 | 7.0 | 1.0 | 9.0 | 2.0 |  |  |  |  |  |  |  |  |  |
| COC(=O)C(C)Oc1ccc(C)cc1-c1nsc2ccc(-n3c(=S)cc(C(F)(F)F)n(C)c3=O)cc12 (stereo not drawn) [Compound 33, Methyl 2-{{2-{5-[3,6-dihydro-3-methyl-2-oxo-6-thioxo-4-(trifluoromethyl)-1(2H)-pyrimidinyl]-1,2-benzisothiazol-3-yl}-p-tolyl}oxy}propionate] | 6.0 | 8.5 | 9.0 | 9.0 | 9.0 | 9.0 | 8.5 | 8.0 | 9.0 | 7.5 | 9.0 | 9.0 |  |  |  |  |  |  |  |  |  |
| COc1cc(C)c(C)c(C)c1-c1nsc2ccc(-n3c(=O)cc(C(F)(F)F)n(C)c3=O)cc12 [Compound 34, 3-[3-(6-Methoxy-2,3,4-trimethylphenyl)-1,2-benzisothiazol-5-yl]-1-methyl-6-(trifluoromethyl)-2,4(1H,3H)-pyrimidinedione] | 3.0 | 0.0 | 1.0 | 0.0 | 0.0 | 7.0 | 4.0 | 0.0 | 0.0 | 0.0 | 4.0 | 1.0 |  |  |  |  |  |  |  |  |  |
| Cn1c(C(F)(F)F)cc(=O)n(-c2ccc3snc(Br)c3c2)c1=O [Compound 36, 3-(3-Bromo-1,2-benzisothiazol-5-yl)-1-methyl-6-(trifluoromethyl)-2,4(1H,3H)-pyrimidinedione] | 0.0 | 0.5 | 0.0 | 0.0 | 1.0 | 9.0 | 1.5 | 0.0 | 0.0 | 0.5 | 0.0 | 1.0 |  |  |  |  |  |  |  |  |  |
| Cn1c(C(F)(F)F)cc(=O)n(-c2ccc3snc(Cl)c3c2)c1=O [Compound 37, 3-(3-chloro-1,2-benzisothiazol-5-yl)-1-methyl-6-(trifluoromethyl)-2,4(1H,3H)-pyrimidinedione] | 1.5 | 0.5 | 0.0 | 1.0 | 1.0 | 0.0 | 2.0 | 0.0 | 0.0 | 0.5 | 0.0 | 0.0 |  |  |  |  |  |  |  |  |  |
| Cc1ccc(OCC(=O)n2cnc3ccccc32)c(-c2nsc3ccc(-n4c(=O)cc(C(F)(F)F)n(C)c4=O)cc23)c1 [Compound 62] | 9.0 | 5.5 | 9.0 | 9.0 | 9.0 | 9.0 | 7.0 | 7.0 | 6.0 | 5.5 | 9.0 | 9.0 |  |  |  |  |  |  |  |  |  |
| CCCCC(=O)c1nsc2ccc(-n3c(=O)cc(C(F)(F)F)n(C)c3=O)cc12 [Compound 431, 2,4(1H,3H)-Pyrimidinedione, 1-methyl-6-(trifluoromethyl)-3-(3-valeryl-1,2-benzisothiazol-5-yl)-] |  |  |  |  |  |  |  |  |  |  |  |  | 0.0 | 4.0 | 9.0 | 9.0 | 9.0 | 9.0 | 9.0 | 9.0 | herbicidal effect rating (ORYSAT Rice, Tebonnet; 0.1250 kg/ha): 3.0; herbicidal effect rating (ORYSAT Rice, Tebonnet; 0.2500 kg/ha): 7.0; herbicidal effect rating ([12]; 0.1250 kg/ha): 0.0; herbicidal effect rating ([12]; 0.2500 kg/ha): 4.0 |
| Cn1c(C(F)(F)F)cc(=O)n(-c2ccc3snc(C(=O)C(C)(C)C)c3c2)c1=O [Compound 432, 2,4(1H,3H)-Pyrimidinedione, 1-methyl-3-(3-pivaloyl-1,2-benzisothiazol-5-yl)-6-(trifluoromethyl)-] |  |  |  |  |  |  |  |  |  |  |  |  | 7.0 | 9.0 | 9.0 | 9.0 | 9.0 | 9.0 | 9.0 | 9.0 | herbicidal effect rating (ORYSAT Rice, Tebonnet; 0.1250 kg/ha): 7.0; herbicidal effect rating (ORYSAT Rice, Tebonnet; 0.2500 kg/ha): 7.0; herbicidal effect rating ([12]; 0.1250 kg/ha): 2.0; herbicidal effect rating ([12]; 0.2500 kg/ha): 4.0 |
| CCC(C#N)(CC)c1nsc2ccc(-n3c(=O)cc(C(F)(F)F)n(C)c3=O)cc12 [Compound 445, 1,2-Benzisothiazole-3-acetonitrile, 5-[3,6-dihydro-3-methyl-2,6-dioxo-4-(trifluoromethyl)-1(2H)-pyrimidinyl]-alpha,alpha-diethyl-] |  |  |  |  |  |  |  |  |  |  |  |  | 4.0 | 4.0 | 2.0 | 9.0 | 9.0 | 9.0 | 9.0 | 9.0 | herbicidal effect rating (ORYSAT Rice, Tebonnet; 0.1250 kg/ha): 7.0; herbicidal effect rating (ORYSAT Rice, Tebonnet; 0.2500 kg/ha): 7.0; herbicidal effect rating ([12]; 0.1250 kg/ha): 4.0; herbicidal effect rating ([12]; 0.2500 kg/ha): 9.0 |
| COc1ccc(I)cc1-c1nsc2ccc(-n3c(=O)cc(C(F)(F)F)n(C)c3=O)cc12 [Compound 448, 2,4(1H,3H)-Pyrimidinedione, 3-[3-(5-iodo-2-methoxyphenyl)-1,2-benzisothiazol-5-yl]-1-methyl-6-(trifluoromethyl)-] |  |  |  |  |  |  |  |  |  |  |  |  | 0.0 | 0.0 | 1.0 | 4.0 | 7.0 | 9.0 | 1.0 | 2.0 | herbicidal effect rating (ORYSAT Rice, Tebonnet; 0.1250 kg/ha): 1.0; herbicidal effect rating (ORYSAT Rice, Tebonnet; 0.2500 kg/ha): 2.0; herbicidal effect rating ([12]; 0.1250 kg/ha): 0.0; herbicidal effect rating ([12]; 0.2500 kg/ha): 0.0 |
